Data on three molecules can be found in patent publication US12097194B2, “Combination therapy for treating blood cancer” (SIGNALCHEM LIFESCIENCES CORPORATION, priority 2018, dated 2024).

Where two headings read alike, the source gives them in different places.

One assay concerns Molm-13 AML cell line. Nature of the assay: Compound dose response assay (trypan blue % viability) and CompuSyn combination analysis, Molm-13. In kind it is cell-based. The conditions noted are these: Homo sapiens. On the procedure:
(§1) The AML cell lines Molm-13 and MV4-11 were obtained from DSMZ. The cells were maintained in culture using RPMI-1640 containing 10% heat-inactivated serum at 37° C./5% CO2. For all experiments, unless otherwise specified, the above-mentioned culture conditions were used. The BCL-2 inhibitors venetoclax (ABT-199) and navitoclax (ABT-263) were purchased from Chemietek. The Axl inhibitor 3-(5-(cyclopropylmethyl)-1,3,4-oxadiazol-2-yl)-5-(1-(piperidin-4-yl)-1H-pyrazol-4-yl)pyridin-2-amine (Compound A) was synthesized according to the method disclosed in WO2015/081257.
(§2) The AML cells Molm-13 and MV4-11 were plated at 5×10^4 cells/mL in 24-well plates and dosed the following day using single or combination of drugs with vehicle (DMSO) only controls. Each cell treatment was conducted in duplicates. Cells were collected 48- or 72-hours post drug treatment, mixed 1:1 with trypan blue and counted manually using a hemocytometer. A total of 100 cells (at the least) were counted for each sample. The % viability was calculated and normalized to vehicle treated controls. Individual IC50 of each compound was determined in each cell line using increasing doses. Four doses less than the IC50 for each compound for each cell line were chosen to conduct the combination studies. The IC50 values were calculated using Prism Version 5.01. CompuSyn software Version 1.0 was used to calculate the combination indices.
(§3) The fraction affected (FA) at the same dose was much higher for the compound combination groups compared to that of the single compound groups.

Another assay has as its system MV4-11 AML cell line. Put plainly: Compound dose response assay (trypan blue % viability) and CompuSyn combination analysis, MV4-11. Type of assay: cell-based. The conditions noted are these: Homo sapiens. On the procedure:
as §1, §2, §3

In assay [1] the test system is CD34+ stem and progenitor cells from AML patients. Put plainly: Patient-derived xenograft (PDX) model of AML in NRG-3GS mice. Type of assay: in vivo. As to conditions: 50 mg/kg QD each agent, oral gavage, 4 weeks, compared to healthy non-leukemic mice. From the text: The relative effectiveness of Compound A and the combination of Compound A and ABT-199 in targeting primitive leukemic cells and/or to prevent leukemia development were investigated in in vivo assays. First, highly purified CD34+ stem and progenitor cells from two different AML patients (with high Axl and GAS6 expression; cohort 1=AML patient #2, cohort 2=AML patient #14, as determined in Example 2) were transduced with a GFP/Luciferase lentivirus reporter to allow non-invasive in vivo imaging (IVIS) of the mice to track leukemia development. […]
Leukemic cell burden was also measured in peripheral blood (PB), bone marrow (BM) and spleens in one set of euthanized mice (one mouse from each treatment group in both cohorts, respectively) and immunophenotypes of engrafted cells determined with fluorescently-labelled CD45, CD34, CD38, CD33, CD15, CD14, CD19 surface markers. Splenomegaly was assessed by spleen sizes and weights (FIG. 5).
All remaining mice were monitored for symptoms of disease development (weight loss, lethargy etc.) and survival between treatment groups compared. […] P-values were calculated with the Log-rank (Mantel-Cox) test and significant differences between groups are indicated.
A general note: A xenograft is tissue or cells of one species grown in another, often human tumour cells in immunodeficient mice.

The subject of another assay is MV4-11 cells. Put plainly: MV4-11 cell line xenograft model of AML in NRG mice. In kind it is in vivo. The conditions noted are these: MV4-11 xenograft, 50 mg/kg QD each agent, oral; for bioluminescent signal (IVIS) / leukemia progression: 3 weeks (15 doses). How it is done:
To investigate the safety and the effectiveness of Compound A monotherapy and combination therapy with ABT-199 for eliminating human leukemic cells in animals, a cell-line based xenograft mouse study was performed. First, MV4-11 cells were transduced with a GFP/Luciferase lentivirus vector to allow sorting/analyzing of human leukemic cells in mice and the non-invasive in vivo imaging system (IVIS) of the mice to track leukemia development and leukemia forming sites. Then, 2.5 million of GFP positive MV4-11 cells per mouse were injected intravenously into irradiated male NRG mice. Two weeks after injection, IVIS imaging was performed to confirm leukemia formation and consistent levels of leukemia burden in each mouse. Following that, mice received 3 weeks (total of 15 doses) of oral treatment with vehicle (control), 50 mg/kg Compound A alone QD, 50 mg/kg ABT-199 alone QD or a combination of Compound A (50 mg/kg, QD) and ABT-199 (50 mg/kg, QD).
After the treatment period, another round of IVIS imaging was performed to evaluate the effectiveness of the treatments. FIG. 8A and FIG. 8B show the bioluminescent imaging of representative mice before treatment and after oral gavages with indicated treatments, respectively. Darkened areas represent sites of observed bioluminescence resultant from presence of GFP/Luciferase leukemic cells. For comparison, healthy mice with no transduced leukemic cells (“no cells”) are also shown.
A representative group of mice was then sacrificed to compare engraftment of leukemic cells in peripheral blood (PB), bone marrow (BM), spleens and livers of each treatment group. Infiltration of leukemic cells into hematopoietic organs as spleen and liver was assessed by weights and histopathologic analysis. FIGS. 9A and 9B show spleen sizes and weights, and Haemotoxylin and Eosin staining of representative mice from each treatment group as indicated, respectively.
The remaining mice were monitored for survival between treatment groups. […] Median survival for each treatment group is indicated in days in brackets. P-values were calculated with the Log-rank (Mantel-Cox) test and significant differences between groups are indicated.

Setting [2] is: BCL-2 inhibitor + Cmpd A, read-out: IC50 (nM) of BCL-2 inhibitor in the presence of Compound A.
Where [3] appears, read: single agent, % viability normalized to vehicle, 48 or 72 hours post treatment, read-out: IC50 (nM), single agent.

Broadly, the IC50 is the concentration that inhibits the measured activity by half. Take `CC1(C)CCC(c2ccc(Cl)cc2)=C(CN2CCN(c3ccc(C(=O)NS(=O)(=O)c4ccc(N[C@H](CCN5CCOCC5)CSc5ccccc5)c(S(=O)(=O)C(F)(F)F)c4)cc3)CC2)C1` [ABT-263, Navitoclax]: the half-inhibitory concentration (IC50) with Molm-13 AML cell line (setting [2]) turned out to be 116 nM; in the assay with Molm-13 AML cell line (setting [3]) it was 358 nM; with MV4-11 AML cell line (setting [2]), 36.8 nM; in the assay with MV4-11 AML cell line (setting [3]), 93.5 nM.
For the molecule `CC1(C)CCC(CN2CCN(c3ccc(C(=O)NS(=O)(=O)c4ccc(NCC5CCOCC5)c([N+](=O)[O-])c4)c(Oc4cnc5[nH]ccc5c4)c3)CC2)=C(c2ccc(Cl)cc2)C1` [ABT-199, Venetoclax], the half-maximal inhibitory concentration (IC50) in the assay on Molm-13 AML cell line (setting [2]) was found to be 9.9 nM; in the assay with Molm-13 AML cell line (setting [3]) it was 55.9 nM; with MV4-11 AML cell line (setting [2]) it was 0.99 nM; in the assay on MV4-11 AML cell line (setting [3]), 20.5 nM. Also, in assay [1], the “splenomegaly (spleen sizes and weights)” value was “significantly enlarged”. Also, the “spleen enlargement (spleen sizes and weights)” value in the assay on MV4-11 cells (3 weeks) was “increased size and weight in the spleens”. In the assay on MV4-11 cells, the “bioluminescent signal (IVIS) / leukemia progression” value is listed as “aggressive leukemia progression”.
Regarding `Nc1ncc(-c2cnn(C3CCNCC3)c2)cc1-c1nnc(CC2CC2)o1` [Compound A, 3-(5-(cyclopropylmethyl)-1,3,4-oxadiazol-2-yl)-5-(1-(piperidin-4-yl)-1H-pyrazol-4-yl)pyridin-2-amine], the concentration for half-maximal inhibition (IC50) in the assay with Molm-13 AML cell line (setting [3]) was 430 nM. For the same molecule, in the assay on MV4-11 AML cell line (setting [3]), the half-maximal inhibitory concentration (IC50) was determined as 421 nM. The “splenomegaly (spleen sizes and weights)” value in assay [1] is recorded as “significantly enlarged”. In addition, in the assay with MV4-11 cells (3 weeks), the “leukemia propagating activity in vivo” value is on record as “can reduce leukemia propagating activity in vivo”; the “spleen enlargement (spleen sizes and weights)” value is recorded as “no sign of spleen enlargement”. Further, the “bioluminescent signal (IVIS) / leukemia progression” value with MV4-11 cells is “dramatically lower intensity bioluminescent signals compared to vehicle and ABT-199 treated mice”.
